Measured values: patent US20230017045A1, “PYRIDINE AND PYRIMIDINE CARBOXYLATE HERBICIDES AND METHODS OF USE THEREOF” (Dow AgroSciences LLC, priority 2017, published 2023)

The molecules below were run on test plant species (assay: Post-emergent herbicidal activity test (greenhouse, foliar spray, visual growth reduction)). Details: post-emergence, 336 h, ECHCG: barnyardgrass (Echinochloa crus-galli), 140 g ai/ha, 14 days after application, read-out: Visual Growth Reduction (%) 14 Days After Application, ECHCG.
Assay type: in vivo
Method in brief: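 Greenhouse plants at first–second true leaf stage sprayed overhead at 187 L/ha with compound in acetone/water/isopropanol/DMSO/crop oil/X-77 carrier; controls received solvent blank. Injury rated visually after 14 d on a 0–100% scale versus untreated and control plants, converted to growth reduction.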

First: COC(=O)c1nc(-c2c(N)cc(C(F)(F)F)cc2Cl)ccc1Cl [F213, Methyl 6-(2-amino-6-chloro-4-(trifluoromethyl)phenyl)-3-chloropicolinate]
Second: O=C(O)c1nc(-c2nc(Cl)c(C(F)(F)F)cc2Cl)ccc1Cl [F225, 3′,5,6′-Trichloro-5'-(trifluoromethyl)-[2,2′-bipyridine]-6-carboxylic acid]
The pest or weed control at 140 g/ha of the first is lower: 0 to 29% for the first, 95 to 100% for the second.

Same assay, conditions: post-emergence, 336 h, IPOHE: ivy-leaf morning glory (Ipomoea hederacea), 140 g ai/ha, 14 days after application, read-out: Visual Growth Reduction (%) 14 Days After Application, IPOHE

`COC(=O)c1nc(-c2c(N)cc(C(F)(F)F)cc2Cl)ccc1Cl` [F213, Methyl 6-(2-amino-6-chloro-4-(trifluoromethyl)phenyl)-3-chloropicolinate] and `O=C(O)c1nc(-c2nc(Cl)c(C(F)(F)F)cc2Cl)ccc1Cl` [F225, 3′,5,6′-Trichloro-5'-(trifluoromethyl)-[2,2′-bipyridine]-6-carboxylic acid] fall in the same range of pest or weed control at 140 g/ha: 95 to 100% for the first, 95 to 100% for the second.

Same assay, conditions: post-emergence, 336 h, KCHSC: kochia (Bassia scoparia), 140 g ai/ha, 14 days after application, read-out: Visual Growth Reduction (%) 14 Days After Application, KCHSC

Compared with `COC(=O)c1nc(-c2c(N)cc(C(F)(F)F)cc2Cl)ccc1Cl` [F213, Methyl 6-(2-amino-6-chloro-4-(trifluoromethyl)phenyl)-3-chloropicolinate], `O=C(O)c1nc(-c2nc(Cl)c(C(F)(F)F)cc2Cl)ccc1Cl` [F225, 3′,5,6′-Trichloro-5'-(trifluoromethyl)-[2,2′-bipyridine]-6-carboxylic acid] is higher in pest or weed control at 140 g/ha: 60 to 74% for the first, 95 to 100% for the second.

Same assay, conditions: post-emergence, 336 h, ORYSA: rice (Oryza sativa), 140 g ai/ha, 14 days after application, read-out: Visual Growth Reduction (%) 14 Days After Application, ORYSA

First: COC(=O)c1nc(-c2c(N)cc(C(F)(F)F)cc2Cl)ccc1Cl [F213, Methyl 6-(2-amino-6-chloro-4-(trifluoromethyl)phenyl)-3-chloropicolinate]
Second: O=C(O)c1nc(-c2nc(Cl)c(C(F)(F)F)cc2Cl)ccc1Cl [F225, 3′,5,6′-Trichloro-5'-(trifluoromethyl)-[2,2′-bipyridine]-6-carboxylic acid]
The pest or weed control at 140 g/ha of the first is lower: 0 to 29% for the first, 85 to 94% for the second.

Same assay, conditions: post-emergence, 336 h, SETFA: giant foxtail (Setaria faberi), 140 g ai/ha, 14 days after application, read-out: Visual Growth Reduction (%) 14 Days After Application, SETFA

First: COC(=O)c1nc(-c2c(N)cc(C(F)(F)F)cc2Cl)ccc1Cl [F213, Methyl 6-(2-amino-6-chloro-4-(trifluoromethyl)phenyl)-3-chloropicolinate]
Second: O=C(O)c1nc(-c2nc(Cl)c(C(F)(F)F)cc2Cl)ccc1Cl [F225, 3′,5,6′-Trichloro-5'-(trifluoromethyl)-[2,2′-bipyridine]-6-carboxylic acid]
The pest or weed control at 140 g/ha of the first is lower: 30 to 44% for the first, 95 to 100% for the second.

Same assay, conditions: post-emergence, 336 h, SORVU: grain sorghum (Sorghum vulgare), 140 g ai/ha, 14 days after application, read-out: Visual Growth Reduction (%) 14 Days After Application, SORVU

First: COC(=O)c1nc(-c2c(N)cc(C(F)(F)F)cc2Cl)ccc1Cl [F213, Methyl 6-(2-amino-6-chloro-4-(trifluoromethyl)phenyl)-3-chloropicolinate]
Second: O=C(O)c1nc(-c2nc(Cl)c(C(F)(F)F)cc2Cl)ccc1Cl [F225, 3′,5,6′-Trichloro-5'-(trifluoromethyl)-[2,2′-bipyridine]-6-carboxylic acid]
The pest or weed control at 140 g/ha of the first is lower: 60 to 74% for the first, 95 to 100% for the second.

Same assay, conditions: post-emergence, 336 h, STEME: common chickweed (Stellaria media), 140 g ai/ha, 14 days after application, read-out: Visual Growth Reduction (%) 14 Days After Application, STEME

Compared with `COC(=O)c1nc(-c2c(N)cc(C(F)(F)F)cc2Cl)ccc1Cl` [F213, Methyl 6-(2-amino-6-chloro-4-(trifluoromethyl)phenyl)-3-chloropicolinate], `O=C(O)c1nc(-c2nc(Cl)c(C(F)(F)F)cc2Cl)ccc1Cl` [F225, 3′,5,6′-Trichloro-5'-(trifluoromethyl)-[2,2′-bipyridine]-6-carboxylic acid] is higher in pest or weed control at 140 g/ha: 0 to 29% for the first, 45 to 59% for the second.

Same assay, conditions: post-emergence, 336 h, TRZAS: wheat, spring (Triticum aestivum), 140 g ai/ha, 14 days after application, read-out: Visual Growth Reduction (%) 14 Days After Application, TRZAS

First: COC(=O)c1nc(-c2c(N)cc(C(F)(F)F)cc2Cl)ccc1Cl [F213, Methyl 6-(2-amino-6-chloro-4-(trifluoromethyl)phenyl)-3-chloropicolinate]
Second: O=C(O)c1nc(-c2nc(Cl)c(C(F)(F)F)cc2Cl)ccc1Cl [F225, 3′,5,6′-Trichloro-5'-(trifluoromethyl)-[2,2′-bipyridine]-6-carboxylic acid]
The pest or weed control at 140 g/ha of the first is lower: 0 to 29% for the first, 75 to 84% for the second.

Same assay, conditions: post-emergence, 336 h, blackgrass (Alopecurus myosuroides), 14 Days After Application, 140 g ai/ha, read-out: Visual Growth Reduction (%) ALOMY

First: COC(=O)c1nc(-c2c(N)cc(C(F)(F)F)cc2Cl)ccc1Cl [F213, Methyl 6-(2-amino-6-chloro-4-(trifluoromethyl)phenyl)-3-chloropicolinate]
Second: O=C(O)c1nc(-c2nc(Cl)c(C(F)(F)F)cc2Cl)ccc1Cl [F225, 3′,5,6′-Trichloro-5'-(trifluoromethyl)-[2,2′-bipyridine]-6-carboxylic acid]
The pest or weed control at 140 g/ha of the first is lower: 0 to 29% for the first, 45 to 59% for the second.

Same assay, conditions: post-emergence, 336 h, canada thistle (Cirsium arvense), 14 Days After Application, 140 g ai/ha, read-out: Visual Growth Reduction (%) CIRAR

First: COC(=O)c1nc(-c2c(N)cc(C(F)(F)F)cc2Cl)ccc1Cl [F213, Methyl 6-(2-amino-6-chloro-4-(trifluoromethyl)phenyl)-3-chloropicolinate]
Second: O=C(O)c1nc(-c2nc(Cl)c(C(F)(F)F)cc2Cl)ccc1Cl [F225, 3′,5,6′-Trichloro-5'-(trifluoromethyl)-[2,2′-bipyridine]-6-carboxylic acid]
The pest or weed control at 140 g/ha of the first is lower: 0 to 29% for the first, 85 to 94% for the second.

Same assay, conditions: post-emergence, 336 h, crabgrass (Digitaria sanguinalis), 14 Days After Application, 140 g ai/ha, read-out: Visual Growth Reduction (%) DIGSA

First: COC(=O)c1nc(-c2c(N)cc(C(F)(F)F)cc2Cl)ccc1Cl [F213, Methyl 6-(2-amino-6-chloro-4-(trifluoromethyl)phenyl)-3-chloropicolinate]
Second: O=C(O)c1nc(-c2nc(Cl)c(C(F)(F)F)cc2Cl)ccc1Cl [F225, 3′,5,6′-Trichloro-5'-(trifluoromethyl)-[2,2′-bipyridine]-6-carboxylic acid]
The pest or weed control at 140 g/ha of the first is lower: 30 to 44% for the first, 95 to 100% for the second.

Same assay, conditions: post-emergence, 336 h, lambsquarters (Chenopodium album), 14 Days After Application, 140 g ai/ha, read-out: Visual Growth Reduction (%) CHEAL

First: COC(=O)c1nc(-c2c(N)cc(C(F)(F)F)cc2Cl)ccc1Cl [F213, Methyl 6-(2-amino-6-chloro-4-(trifluoromethyl)phenyl)-3-chloropicolinate]
Second: O=C(O)c1nc(-c2nc(Cl)c(C(F)(F)F)cc2Cl)ccc1Cl [F225, 3′,5,6′-Trichloro-5'-(trifluoromethyl)-[2,2′-bipyridine]-6-carboxylic acid]
The pest or weed control at 140 g/ha of the first is lower: 85 to 94% for the first, 95 to 100% for the second.

Same assay, conditions: post-emergence, 336 h, redroot pigweed (Amaranthus retroflexus), 14 Days After Application, 140 g ai/ha, read-out: Visual Growth Reduction (%) AMARE

Compared with `COC(=O)c1nc(-c2c(N)cc(C(F)(F)F)cc2Cl)ccc1Cl` [F213, Methyl 6-(2-amino-6-chloro-4-(trifluoromethyl)phenyl)-3-chloropicolinate], `O=C(O)c1nc(-c2nc(Cl)c(C(F)(F)F)cc2Cl)ccc1Cl` [F225, 3′,5,6′-Trichloro-5'-(trifluoromethyl)-[2,2′-bipyridine]-6-carboxylic acid] is higher in pest or weed control at 140 g/ha: 45 to 59% for the first, 95 to 100% for the second.

Same assay, conditions: post-emergence, 336 h, wild oat (Avena fatua), 14 Days After Application, 140 g ai/ha, read-out: Visual Growth Reduction (%) AVEFA

Compared with `COC(=O)c1nc(-c2c(N)cc(C(F)(F)F)cc2Cl)ccc1Cl` [F213, Methyl 6-(2-amino-6-chloro-4-(trifluoromethyl)phenyl)-3-chloropicolinate], `O=C(O)c1nc(-c2nc(Cl)c(C(F)(F)F)cc2Cl)ccc1Cl` [F225, 3′,5,6′-Trichloro-5'-(trifluoromethyl)-[2,2′-bipyridine]-6-carboxylic acid] is higher in pest or weed control at 140 g/ha: 0 to 29% for the first, 95 to 100% for the second.

Same assay, conditions: post-emergence, 336 h, yellow nutsedge (Cyperus esculentus), 14 Days After Application, 140 g ai/ha, read-out: Visual Growth Reduction (%) CYPES

Compared with `COC(=O)c1nc(-c2c(N)cc(C(F)(F)F)cc2Cl)ccc1Cl` [F213, Methyl 6-(2-amino-6-chloro-4-(trifluoromethyl)phenyl)-3-chloropicolinate], `O=C(O)c1nc(-c2nc(Cl)c(C(F)(F)F)cc2Cl)ccc1Cl` [F225, 3′,5,6′-Trichloro-5'-(trifluoromethyl)-[2,2′-bipyridine]-6-carboxylic acid] is higher in pest or weed control at 140 g/ha: 0 to 29% for the first, 45 to 59% for the second.
